{"source": "patent US6706663B2", "about": "“Herbicidal 3-heterocyclic substituted benzisothiazole and benzisoxazole compounds” (Wyeth, priority 2000, dated 2004)", "key": {"[1]": {"tested_on": "ECHORC (Echinochloa oryzoides)", "experiment": "Flooded paddy, preemergence weed control", "assay_type": "in vivo, Echinochloa oryzoides (Ard.) Fritsch.", "conditions": "rated 3-4 weeks after treatment, 0-9 rating scale", "outline": "(§1)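 Visual 0–9 ratings versus controls scored stand, vigor, malformation, size, chlorosis and overall appearance. Plants grew from seeds or propagating organs sown 0.5 cm deep in silt loam, with water held 1.5–3 cm above the soil for the whole test under greenhouse care.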"}, "SETVI (Setaria viridis) [2]": {"tested_on": "SETVI (Setaria viridis)", "experiment": "Postemergence herbicidal evaluation", "assay_type": "in vivo, (L.) Beau", "conditions": "postemergence", "outline": "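Seedlings grown about two weeks were sprayed with compound in 50/50 acetone/water containing 0.5% TWEEN 20, at about 0.0040 to 1.000 kg/ha via nozzle at 40 psi. Plants were kept under greenhouse conditions and visually rated on a 0-9 scale versus control four to five weeks after treatment; replicate tests averaged.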"}, "[3]": {"tested_on": "IPOHE (Ipomoea hederacea)", "experiment": "Postemergence herbicidal evaluation", "assay_type": "in vivo, (L.) Jacq.", "conditions": "postemergence", "outline": "(§2)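 Visual 0–9 injury scores versus control plants, covering stand, vigour, malformation, size, chlorosis and general appearance, taken four to five weeks post-spray and averaged over replicate tests. Plants were sprayed at roughly two weeks old and held on greenhouse benches.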"}, "ORYSAT (Rice, Tebonnet) [4]": {"tested_on": "ORYSAT (Rice, Tebonnet)", "experiment": "Postemergence herbicidal evaluation", "assay_type": "in vivo, Oryza sativa, (L.) Tebonnet", "conditions": "postemergence", "outline": "as §2"}, "[5]": {"tested_on": "ECHCG (Echinochloa crus-galli)", "experiment": "Postemergence herbicidal evaluation", "assay_type": "in vivo, (L.) Beau", "conditions": "postemergence", "outline": "as §2"}, "CYPIR (Cyperus iria)": {"tested_on": "CYPIR (Cyperus iria)", "experiment": "Flooded paddy, preemergence weed control", "assay_type": "in vivo", "conditions": "rated 3-4 weeks after treatment, 0-9 rating scale", "outline": "as §1"}, "[6]": {"tested_on": "CASOB (Cassia obtusifolia)", "experiment": "Preemergence herbicidal evaluation", "assay_type": "in vivo, L.", "conditions": "rated 4-5 weeks after treatment", "outline": "(§3)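 Rating 0–9, visual, vs control; 4–5 wk after spraying seeded cups with compound in aq. acetone; conventional greenhouse care.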"}, "[7]": {"tested_on": "AMBEL (Ambrosia artemisifolia)", "experiment": "Preemergence herbicidal evaluation", "assay_type": "in vivo, L.", "conditions": "rated 4-5 weeks after treatment", "outline": "as §3"}, "[8]": {"tested_on": "CHEAL (Chenopodium album)", "experiment": "Preemergence herbicidal evaluation", "assay_type": "in vivo, L.", "conditions": "rated 4-5 weeks after treatment", "outline": "as §3"}, "[9]": {"tested_on": "SAGPY (Sagittaria pygmaea)", "experiment": "Flooded paddy, preemergence weed control", "assay_type": "in vivo, L.", "conditions": "rated 3-4 weeks after treatment, 0-9 rating scale", "outline": "as §1"}, "[10]": {"tested_on": "ABUTH (Abutilon theophrasti)", "experiment": "Postemergence herbicidal evaluation", "assay_type": "in vivo, Medic.", "conditions": "postemergence", "outline": "as §2"}, "SETVI (Setaria viridis) [11]": {"tested_on": "SETVI (Setaria viridis)", "experiment": "Preemergence herbicidal evaluation", "assay_type": "in vivo, (L.) Beau", "conditions": "rated 4-5 weeks after treatment", "outline": "as §3"}, "[12]": {"tested_on": "ECHCG (Echinochloa crus-galli)", "experiment": "Preemergence herbicidal evaluation", "assay_type": "in vivo, (L.) Beau", "conditions": "rated 4-5 weeks after treatment", "outline": "as §3"}, "ORYSAT (Rice, Tebonnet) [13]": {"tested_on": "ORYSAT (Rice, Tebonnet)", "experiment": "Preemergence herbicidal evaluation", "assay_type": "in vivo, Oryza sativa, (L.) Tebonnet", "conditions": "rated 4-5 weeks after treatment"}, "[14]": {"tested_on": "IPOHE (Ipomoea hederacea)", "experiment": "Preemergence herbicidal evaluation", "assay_type": "in vivo, (L.) Jacq.", "conditions": "rated 4-5 weeks after treatment"}, "ORYSAT (Rice, Tebonnet) [15]": {"tested_on": "ORYSAT (Rice, Tebonnet)", "experiment": "Flooded paddy, post-transplant rice tolerance", "assay_type": "in vivo, Oryza sativa, (L.) Tebonnet", "conditions": "flooded paddy, post-transplant rice, rated 3-4 weeks after treatment, 0-9 rating scale", "outline": "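Two ten-day-old seedlings were transplanted into silt loam, flooded and held at 1.5 to 3 cm water above the soil before herbicide treatment. Pots stayed in the greenhouse at that water level. Injury was scored visually on a 0-9 scale versus untreated control.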"}, "[16]": {"tested_on": "GLXMAW (Soybean, Williams)", "experiment": "Postemergence herbicidal evaluation", "assay_type": "in vivo, Glycine max, (L.) Merr. cv Williams", "conditions": "postemergence", "outline": "as §2"}, "ZEAMX (Corn, Field)": {"tested_on": "ZEAMX (Corn, Field)", "experiment": "Postemergence herbicidal evaluation", "assay_type": "in vivo, Zea mays, L.", "conditions": "postemergence", "outline": "as §2"}, "[17]": {"tested_on": "MOOVA (Monochoria vaginalis)", "experiment": "Flooded paddy, preemergence weed control", "assay_type": "in vivo, Presl.", "conditions": "rated 3-4 weeks after treatment, 0-9 rating scale", "outline": "as §1"}, "GALAP (Galium aparine)": {"tested_on": "GALAP (Galium aparine)", "experiment": "Postemergence herbicidal evaluation", "assay_type": "in vivo", "conditions": "postemergence", "outline": "as §2"}}, "data": [{"compound": "CC1COC(c2nsc3ccc(-n4c(=O)cc(C(F)(F)F)n(C)c4=O)cc23)O1", "note": "(stereo not drawn) [Compound 57, 1-methyl-3-[3-(4-methyl-1,3-dioxolan-2-yl)-1,2-benzisothiazol-5-yl]-6-(trifluoromethyl)uracil]", "values": [{"measurement": "herbicidal rating, ECHORC", "setting": "[1]; rate 0.0080 kg/ha", "result": 5.0}, {"measurement": "herbicidal rating, ECHORC", "setting": "[1]; rate 0.0320 kg/ha", "result": 8.0}, {"measurement": "herbicidal rating, ECHORC", "setting": "[1]; rate 0.1250 kg/ha", "result": 9.0}, {"measurement": "SETVI herbicidal rating", "setting": "SETVI (Setaria viridis) [2]; rate 0.0320 kg/ha", "result": 4.0}, {"measurement": "SETVI herbicidal rating", "setting": "SETVI (Setaria viridis) [2]; rate 0.0620 kg/ha", "result": 9.0}, {"measurement": "IPOHE herbicidal rating", "setting": "[3]; rate 0.0320 kg/ha", "result": 9.0}, {"measurement": "IPOHE herbicidal rating", "setting": "[3]; rate 0.0620 kg/ha", "result": 9.0}, {"measurement": "ORYSAT herbicidal rating", "setting": "ORYSAT (Rice, Tebonnet) [4]; rate 0.0320 kg/ha", "result": 4.0}, {"measurement": "ORYSAT herbicidal rating", "setting": "ORYSAT (Rice, Tebonnet) [4]; rate 0.0620 kg/ha", "result": 4.5}, {"measurement": "ECHCG herbicidal rating", "setting": "[5]; rate 0.0320 kg/ha", "result": 3.0}, {"measurement": "ECHCG herbicidal rating", "setting": "[5]; rate 0.0620 kg/ha", "result": 3.0}, {"measurement": "herbicidal rating, CYPIR", "setting": "CYPIR (Cyperus iria); rate 0.0080 kg/ha", "result": 0.0}, {"measurement": "herbicidal rating, CYPIR", "setting": "CYPIR (Cyperus iria); rate 0.0320 kg/ha", "result": 7.5}, {"measurement": "herbicidal rating, CYPIR", "setting": "CYPIR (Cyperus iria); rate 0.1250 kg/ha", "result": 9.0}, {"measurement": "Preemergence herbicidal rating CASOB", "setting": "[6]; Rate 0.0620 kg/ha", "result": 5.5}, {"measurement": "Preemergence herbicidal rating CASOB", "setting": "[6]; Rate 0.1250 kg/ha", "result": 7.5}, {"measurement": "Preemergence herbicidal rating CASOB", "setting": "[6]; Rate 0.2500 kg/ha", "result": 9.0}, {"measurement": "Preemergence herbicidal rating AMBEL", "setting": "[7]; Rate 0.0620 kg/ha", "result": 9.0}, {"measurement": "Preemergence herbicidal rating AMBEL", "setting": "[7]; Rate 0.1250 kg/ha", "result": 9.0}, {"measurement": "Preemergence herbicidal rating AMBEL", "setting": "[7]; Rate 0.2500 kg/ha", "result": 9.0}, {"measurement": "Preemergence herbicidal rating CHEAL", "setting": "[8]; Rate 0.0620 kg/ha", "result": 9.0}, {"measurement": "Preemergence herbicidal rating CHEAL", "setting": "[8]; Rate 0.1250 kg/ha", "result": 9.0}, {"measurement": "Preemergence herbicidal rating CHEAL", "setting": "[8]; Rate 0.2500 kg/ha", "result": 9.0}, {"measurement": "herbicidal rating, SAGPY", "setting": "[9]; rate 0.0080 kg/ha", "result": 0.0}, {"measurement": "herbicidal rating, SAGPY", "setting": "[9]; rate 0.0320 kg/ha", "result": 4.5}, {"measurement": "herbicidal rating, SAGPY", "setting": "[9]; rate 0.1250 kg/ha", "result": 7.5}, {"measurement": "ABUTH herbicidal rating", "setting": "[10]; rate 0.0320 kg/ha", "result": 9.0}, {"measurement": "ABUTH herbicidal rating", "setting": "[10]; rate 0.0620 kg/ha", "result": 9.0}, {"measurement": "Preemergence herbicidal rating SETVI", "setting": "SETVI (Setaria viridis) [11]; Rate 0.0620 kg/ha", "result": 9.0}, {"measurement": "Preemergence herbicidal rating SETVI", "setting": "SETVI (Setaria viridis) [11]; Rate 0.1250 kg/ha", "result": 9.0}, {"measurement": "Preemergence herbicidal rating SETVI", "setting": "SETVI (Setaria viridis) [11]; Rate 0.2500 kg/ha", "result": 9.0}, {"measurement": "Preemergence herbicidal rating ECHCG", "setting": "[12]; Rate 0.0620 kg/ha", "result": 9.0}, {"measurement": "Preemergence herbicidal rating ECHCG", "setting": "[12]; Rate 0.1250 kg/ha", "result": 9.0}, {"measurement": "Preemergence herbicidal rating ECHCG", "setting": "[12]; Rate 0.2500 kg/ha", "result": 9.0}, {"measurement": "Preemergence herbicidal rating ORYSAT", "setting": "ORYSAT (Rice, Tebonnet) [13]; Rate 0.0620 kg/ha", "result": 8.0}, {"measurement": "Preemergence herbicidal rating ORYSAT", "setting": "ORYSAT (Rice, Tebonnet) [13]; Rate 0.1250 kg/ha", "result": 8.0}, {"measurement": "Preemergence herbicidal rating ORYSAT", "setting": "ORYSAT (Rice, Tebonnet) [13]; Rate 0.2500 kg/ha", "result": 9.0}, {"measurement": "Preemergence herbicidal rating IPOHE", "setting": "[14]; Rate 0.0620 kg/ha", "result": 9.0}, {"measurement": "Preemergence herbicidal rating IPOHE", "setting": "[14]; Rate 0.1250 kg/ha", "result": 9.0}, {"measurement": "Preemergence herbicidal rating IPOHE", "setting": "[14]; Rate 0.2500 kg/ha", "result": 9.0}, {"measurement": "herbicidal rating, ORYSAT (rice tolerance)", "setting": "ORYSAT (Rice, Tebonnet) [15]; rate 0.0080 kg/ha", "result": 3.0}, {"measurement": "herbicidal rating, ORYSAT (rice tolerance)", "setting": "ORYSAT (Rice, Tebonnet) [15]; rate 0.0320 kg/ha", "result": 8.0}, {"measurement": "herbicidal rating, ORYSAT (rice tolerance)", "setting": "ORYSAT (Rice, Tebonnet) [15]; rate 0.1250 kg/ha", "result": 9.0}, {"measurement": "GLXMAW herbicidal rating", "setting": "[16]; rate 0.0320 kg/ha", "result": 7.0}, {"measurement": "GLXMAW herbicidal rating", "setting": "[16]; rate 0.0620 kg/ha", "result": 8.5}, {"measurement": "ZEAMX herbicidal rating", "setting": "ZEAMX (Corn, Field); rate 0.0320 kg/ha", "result": 5.0}, {"measurement": "ZEAMX herbicidal rating", "setting": "ZEAMX (Corn, Field); rate 0.0620 kg/ha", "result": 5.5}, {"measurement": "herbicidal rating, MOOVA", "setting": "[17]; rate 0.0320 kg/ha", "result": 9.0}, {"measurement": "herbicidal rating, MOOVA", "setting": "[17]; rate 0.1250 kg/ha", "result": 9.0}, {"measurement": "GALAP herbicidal rating", "setting": "GALAP (Galium aparine); rate 0.0320 kg/ha", "result": 6.0}, {"measurement": "GALAP herbicidal rating", "setting": "GALAP (Galium aparine); rate 0.0620 kg/ha", "result": 9.0}]}]}
